The structures appear in SMILES notation.

This assay has as its system wheat NIM1 homologue mRNA transcripts. In words: RNA gel blot of wheat RNA probed with the KL1/KL2 PCR product of the wheat NIM1 homologue. The format is in vivo. Particulars: polyA+ RNA from leaf tissue of young wheat plants, BTH-treated for 24 h. An excerpt: The PCR product from wheat genomic DNA that is obtained with PCR primers KL1 and KL2 (SEQ ID NO:3 and SEQ ID NO:4, respectively) is used to probe gel blots of wheat RNA. […] The smaller transcript corresponds to the size detected in total RNA. […] The wheat “NIM loop”-described above is also used as a probe.

Consider `CSC(=O)c1cccc2nnsc12` [BTH, benzo(1,2,3)thiadiazole-7-carbothioic acid S-methyl ester], for which the “abundance of the two NIM1 homologue transcripts, BTH-treated versus untreated plants” value is “equal abundance”.

These data come from patent publication US20050132438A1, “Novel monocotylednous plant genes and uses thereof” (priority 2000, published 2005).
